Data set [1] in a line: Drug accumulation in mitochondria of human NCI-H1975 cells at 600 nM incubated for 5 hrs by Red CMXRos probe based analysis. Type of data set: ADME. Particulars: nci-h1975, 5 h, 0.6 µM.
The subject of data set [2] is NCI-H1975. The experiment in a line: Inhibition of mitochondrial membrane potential in human NCI-H1975 cells at 200 nM incubated for 24 hrs by JC-1 staining based flow cytometry. Type of data set: functional, cell-based.
Data set [3] is described as follows: Developmental toxicity in zebrafish AB zygotes assessed as embryo malformation at 2 to 4 uM treated at 6 hrs post-fertilization measured at 24 to 72 hrs post-fertilization. Particulars: in vivo, dose lower 2 µM, time lower 18 hrs, dose upper 4 µM, time upper 66 hrs. Also on record: species or system Danio rerio.
Data set [4] in a line: Developmental toxicity in zebrafish AB zygotes assessed as decrease in body length treated at 6 hrs post-fertilization measured at 24 to 72 hrs post-fertilization. Also on record: species or system Danio rerio. Particulars: in vivo, dose lower 0.25 µM, time lower 18 hrs, dose upper 4 µM, time upper 66 hrs.
Data set [5] can be described thus: Developmental toxicity in zebrafish AB zygotes assessed as decrease in hatching rate at 0.25 to 1 uM treated at 6 hrs post-fertilization measured at 24 to 72 hrs post-fertilization. Particulars: in vivo, dose lower 0.25 µM, time lower 18 hrs, dose upper 1 µM, time upper 66 hrs. On the set-up: species or system Danio rerio.
The nature of data set [6]: Renal toxicity in zebrafish assessed as yolk sac absorption at 0.5 to 4 uM treated at 3 hrs post-fertilization measured at 48 hrs post-compound treatment by FITC staining based microscopy. The following applies: in vivo, dose 0.5-4 µM. On the set-up: species or system Danio rerio.
The nature of data set [7]: Renal toxicity in zebrafish assessed as FITC dye residue at 2 uM treated for 24 hrs followed by dye treatment measured after 6 hrs by fluorescence microscopy. The following applies: in vivo, 30 h. Also on record: species or system Danio rerio.
Data set [8] can be described thus: Toxicity in zebrafish embryo assessed as liver development at 2 uM with replacement of new growth solution daily by fluorescence microscopy (reference value: 100.00 +/- 8.64 %). It is filed as tissue-based, Danio rerio. Particulars: in vivo.
A further data set deals with HepG2. The experiment in a line: Cytotoxicity against human HepG2 cells assessed as cell growth inhibition incubated for 48 hrs by MTT assay. It is filed as functional, cell-based. Particulars: dose 4.5-10 nM.
Data set [9] relates to NCI-H1975. Nature of the data set: Cytotoxicity against human NCI-H1975 cells assessed as cell growth inhibition at >41.15 nM incubated for 48 hrs by MTT assay relative to control. Type of data set: functional. For orientation: Formazan colour is commonly taken as a measure of viable cells.
Data set [10] can be described thus: Renal toxicity in fluorescent transgenic zebrafish at 0.5 to 2 uM treated for 48 hrs by fluorescence microscopy. On the set-up: species or system Danio rerio. The following applies: in vivo, dose 0.5-2 µM.

Calls of active or inactive are those of the source. The calls are words filed in the database; no cut-off is given here.

Consider `CC(C)[C@]12O[C@H]1[C@@H]1O[C@]13[C@]1(O[C@H]1C[C@H]1C4=C(CC[C@@]13C)C(=O)OC4)[C@@H]2OC(=O)CCCCCCCC[n+]1ccc(/C=C/c2c[nH]c3ccccc23)cc1.[Br-]`, for which the Drug uptake result in [1] was “Active”. The inhibition entry in the data set on NCI-H1975 [2] was “Active”. Further, the Activity result in [3] is listed as “Toxic”; in data set [4] it was “Dose-Dependent Effect”; in data set [5] it was “Non-Toxic”; in [6], “Non-Toxic”; in [7], “Toxic”; in data set [8], 41.79%.
`CC(C)[C@]12O[C@H]1[C@@H]1O[C@@]13[C@@]1(C)CCC4=C(COC4=O)[C@@H]1C[C@@H]1O[C@@]13C2=O` [TRIPTONIDE]: the inhibition entry in the data set on HepG2 is “Active”. For the same compound, in the data set on NCI-H1975 [9], the “inhibition (INH)” value is on record as less than 50%. Further, in data set [10], the Activity entry is recorded as “Toxic”.

Values taken from ChEMBL document CHEMBL5537157, “Selective Antitumor Effect and Lower Toxicity of Mitochondrion-Targeting Derivatization of Triptolide” (J Med Chem, 2024).
